The source of these data is patent US9682141B2, “Combination of kinase inhibitors and uses thereof” (INTELLIKINE LLC, priority 2011, dated 2017).

The conditions of series [1]: control or reference compound, 5 μM; cited from earlier work.
The conditions of series [2]: PBS pH 7.4, 37° C., 24 hours, 5 μM reference compound; cited from earlier work.
A further series addresses PI3K α (Homo sapiens (Human), UniProt P42336). Kind of series: PI 3-Kinase (human) HTRF assay, p110α/p85α. The series is classed as biochemical.
The target of a further series is PI3K β (Homo sapiens (Human), UniProt P42338). Kind of series: PI 3-Kinase (human) HTRF assay, p110β/p85α. It counts as biochemical.
In the next series the target is PI3K δ (Homo sapiens (Human), UniProt O00329). Briefly: PI 3-Kinase (human) HTRF assay, p110δ/p85α. The series is classed as biochemical.
Another series deals with PI3K γ (Homo sapiens (Human), UniProt P48736). Briefly: PI 3-Kinase (human) HTRF assay, p110γ. The series is classed as biochemical. The note with it: read-out: PI3K γ IC50.
PI3K γ, sequence (P48736 whole entry): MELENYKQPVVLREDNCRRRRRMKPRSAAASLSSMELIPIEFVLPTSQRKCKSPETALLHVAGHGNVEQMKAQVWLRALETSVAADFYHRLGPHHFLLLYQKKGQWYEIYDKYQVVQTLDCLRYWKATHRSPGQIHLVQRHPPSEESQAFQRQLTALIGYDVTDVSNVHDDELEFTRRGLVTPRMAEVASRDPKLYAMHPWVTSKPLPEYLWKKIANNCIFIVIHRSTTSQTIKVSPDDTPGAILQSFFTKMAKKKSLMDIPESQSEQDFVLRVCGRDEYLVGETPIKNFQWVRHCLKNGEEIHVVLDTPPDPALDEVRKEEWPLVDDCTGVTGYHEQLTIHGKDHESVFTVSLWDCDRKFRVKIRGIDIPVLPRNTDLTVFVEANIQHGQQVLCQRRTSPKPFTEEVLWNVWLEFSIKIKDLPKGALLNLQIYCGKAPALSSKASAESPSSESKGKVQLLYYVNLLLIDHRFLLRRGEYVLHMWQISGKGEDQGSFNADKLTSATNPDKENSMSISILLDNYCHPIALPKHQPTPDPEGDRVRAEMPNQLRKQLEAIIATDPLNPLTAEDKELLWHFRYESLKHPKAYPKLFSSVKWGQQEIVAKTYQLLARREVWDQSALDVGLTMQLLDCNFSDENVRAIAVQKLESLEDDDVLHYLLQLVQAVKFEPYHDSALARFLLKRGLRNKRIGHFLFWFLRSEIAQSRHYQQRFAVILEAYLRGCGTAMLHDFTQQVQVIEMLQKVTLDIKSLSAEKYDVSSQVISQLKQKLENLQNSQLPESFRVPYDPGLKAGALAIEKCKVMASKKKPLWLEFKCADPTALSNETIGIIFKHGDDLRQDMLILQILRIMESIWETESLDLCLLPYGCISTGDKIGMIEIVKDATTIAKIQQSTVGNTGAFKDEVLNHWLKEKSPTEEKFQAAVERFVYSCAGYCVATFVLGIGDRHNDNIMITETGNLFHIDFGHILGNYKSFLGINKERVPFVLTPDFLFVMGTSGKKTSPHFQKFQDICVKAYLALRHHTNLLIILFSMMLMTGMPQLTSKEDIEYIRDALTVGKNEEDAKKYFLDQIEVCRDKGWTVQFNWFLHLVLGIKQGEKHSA
The target of a further series is mTORC (Homo sapiens (Human), UniProt P42345). Kind of series: mTOR inhibition assay (radiometric or LanthaScreen TR-FRET). It counts as biochemical.
mTORC, sequence (P42345 1360-2549): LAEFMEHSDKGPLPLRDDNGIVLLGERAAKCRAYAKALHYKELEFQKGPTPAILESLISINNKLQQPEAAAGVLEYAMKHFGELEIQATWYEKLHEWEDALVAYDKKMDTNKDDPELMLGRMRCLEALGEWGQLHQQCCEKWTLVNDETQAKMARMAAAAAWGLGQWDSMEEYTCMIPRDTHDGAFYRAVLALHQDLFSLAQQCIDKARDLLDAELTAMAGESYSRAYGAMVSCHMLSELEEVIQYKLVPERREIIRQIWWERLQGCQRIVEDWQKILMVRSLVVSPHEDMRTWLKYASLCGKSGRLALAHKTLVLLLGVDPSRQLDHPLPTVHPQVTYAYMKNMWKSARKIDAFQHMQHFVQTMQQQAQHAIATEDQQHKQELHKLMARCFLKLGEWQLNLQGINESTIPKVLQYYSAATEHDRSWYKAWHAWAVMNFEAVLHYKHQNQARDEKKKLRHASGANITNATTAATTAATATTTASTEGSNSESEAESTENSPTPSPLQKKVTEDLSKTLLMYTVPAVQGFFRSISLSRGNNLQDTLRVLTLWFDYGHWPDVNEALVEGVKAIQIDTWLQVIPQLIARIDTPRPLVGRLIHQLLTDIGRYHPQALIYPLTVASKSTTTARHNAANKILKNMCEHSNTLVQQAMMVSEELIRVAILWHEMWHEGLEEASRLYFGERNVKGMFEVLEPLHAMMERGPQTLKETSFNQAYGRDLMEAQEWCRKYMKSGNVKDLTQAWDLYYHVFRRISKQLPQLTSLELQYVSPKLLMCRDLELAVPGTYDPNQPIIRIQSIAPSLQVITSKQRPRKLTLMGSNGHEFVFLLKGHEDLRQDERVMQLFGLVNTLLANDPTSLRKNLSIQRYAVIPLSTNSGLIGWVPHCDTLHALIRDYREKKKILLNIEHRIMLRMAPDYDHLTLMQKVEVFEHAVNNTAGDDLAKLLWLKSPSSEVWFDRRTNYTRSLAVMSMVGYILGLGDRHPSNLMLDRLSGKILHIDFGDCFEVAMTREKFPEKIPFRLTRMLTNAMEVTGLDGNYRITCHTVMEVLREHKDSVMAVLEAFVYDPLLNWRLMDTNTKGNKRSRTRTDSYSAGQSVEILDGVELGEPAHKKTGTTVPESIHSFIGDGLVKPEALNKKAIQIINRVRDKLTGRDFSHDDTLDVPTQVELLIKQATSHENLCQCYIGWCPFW
For series [3], the system named is PI3K/Akt/mTor signaling in blood cells. Briefly: Kinase signaling in blood (phosflow). It counts as cell-based. As to conditions: anti-CD3 stimulated splenocytes or PBMC. How it is done: PI3K/Akt/mTor signaling is measured in blood cells using the phosflow method (Methods Enzymol. 2007; 434:131-54). The advantage of this method is that it is by nature a single cell assay so that cellular heterogeneity can be detected rather than population averages. This allows concurrent dinstinction of signaling states in different populations defined by other markers. Phosflow is also highly quantitative. To test the effects of one or more compounds disclosed herein, unfractionated splenocytes, or peripheral blood mononuclear cells are stimulated with anti-CD3 to initiate T-cell receptor signaling. The cells are then fixed and stained for surface markers and intracellular phosphoproteins.
Similarly, aliquots of whole blood are incubated for 15 minutes with vehicle (e.g., 0.1% DMSO) or kinase inhibitors at various concentrations, before addition of stimuli to crosslink the T cell receptor (TCR) (anti-CD3 with secondary antibody) or the B cell receptor (BCR) using anti-kappa light chain antibody (Fab′2 fragments). After approximately 5 and 15 minutes, samples are fixed (e.g., with cold 4% paraformaldehyde) and used for phosflow. […] The level of phosphrylation of kinase substrates such as Akt and S6 are then measured by incubating the fixed cells with labeled antibodies specific to the phosphorylated isoforms of these proteins. The population of cells is then analyzed by flow cytometry.

PI3K α, sequence (P42336 whole entry): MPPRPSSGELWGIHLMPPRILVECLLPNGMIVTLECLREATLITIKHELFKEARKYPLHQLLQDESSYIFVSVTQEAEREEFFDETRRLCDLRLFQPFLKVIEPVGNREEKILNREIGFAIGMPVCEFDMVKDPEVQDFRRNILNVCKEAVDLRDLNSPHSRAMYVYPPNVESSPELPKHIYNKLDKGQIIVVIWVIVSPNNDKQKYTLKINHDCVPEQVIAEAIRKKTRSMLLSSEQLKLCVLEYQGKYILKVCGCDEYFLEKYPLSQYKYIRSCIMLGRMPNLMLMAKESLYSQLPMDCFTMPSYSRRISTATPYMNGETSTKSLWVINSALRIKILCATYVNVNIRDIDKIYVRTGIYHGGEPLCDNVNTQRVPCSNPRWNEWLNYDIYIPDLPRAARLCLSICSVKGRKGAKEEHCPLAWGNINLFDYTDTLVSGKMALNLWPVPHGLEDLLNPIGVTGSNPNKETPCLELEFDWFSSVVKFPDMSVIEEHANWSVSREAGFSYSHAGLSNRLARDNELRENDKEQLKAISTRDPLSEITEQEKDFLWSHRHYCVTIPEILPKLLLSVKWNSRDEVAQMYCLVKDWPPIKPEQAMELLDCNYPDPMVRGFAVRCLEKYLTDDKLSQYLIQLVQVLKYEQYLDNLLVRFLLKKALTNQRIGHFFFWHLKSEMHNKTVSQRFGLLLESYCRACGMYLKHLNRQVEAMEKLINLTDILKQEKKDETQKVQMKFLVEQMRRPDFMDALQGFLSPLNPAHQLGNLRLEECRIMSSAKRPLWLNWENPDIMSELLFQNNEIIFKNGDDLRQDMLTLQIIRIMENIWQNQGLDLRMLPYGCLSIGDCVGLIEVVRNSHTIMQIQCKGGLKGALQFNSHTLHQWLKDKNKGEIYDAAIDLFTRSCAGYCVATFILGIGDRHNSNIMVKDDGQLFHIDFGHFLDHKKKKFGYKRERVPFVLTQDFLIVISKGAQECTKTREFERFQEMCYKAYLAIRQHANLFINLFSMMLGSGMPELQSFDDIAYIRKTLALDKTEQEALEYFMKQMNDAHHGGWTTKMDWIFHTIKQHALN
PI3K α, sequence (P27986 whole entry partner): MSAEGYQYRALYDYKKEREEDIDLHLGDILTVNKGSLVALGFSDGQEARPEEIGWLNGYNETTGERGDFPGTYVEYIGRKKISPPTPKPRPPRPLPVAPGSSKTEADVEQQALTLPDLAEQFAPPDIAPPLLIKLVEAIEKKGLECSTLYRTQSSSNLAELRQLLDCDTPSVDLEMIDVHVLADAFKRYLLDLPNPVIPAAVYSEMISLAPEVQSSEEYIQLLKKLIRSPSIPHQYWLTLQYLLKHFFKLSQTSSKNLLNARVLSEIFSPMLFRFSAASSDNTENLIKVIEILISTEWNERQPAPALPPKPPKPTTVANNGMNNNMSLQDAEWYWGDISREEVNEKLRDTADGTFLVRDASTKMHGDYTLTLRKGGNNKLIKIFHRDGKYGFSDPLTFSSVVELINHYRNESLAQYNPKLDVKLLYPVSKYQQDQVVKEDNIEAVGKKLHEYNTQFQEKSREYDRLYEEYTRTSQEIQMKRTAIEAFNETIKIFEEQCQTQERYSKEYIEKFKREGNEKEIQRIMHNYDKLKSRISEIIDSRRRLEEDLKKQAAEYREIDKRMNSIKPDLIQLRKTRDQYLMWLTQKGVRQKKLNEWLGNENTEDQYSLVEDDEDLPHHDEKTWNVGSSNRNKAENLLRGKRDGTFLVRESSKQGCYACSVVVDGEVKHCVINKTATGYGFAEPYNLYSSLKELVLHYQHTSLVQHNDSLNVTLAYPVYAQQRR
Procedure for PI3K α: (§1) An exemplary system is PI 3-Kinase (human) HTRF™ Assay from Upstate. […] Briefly, the assay is a time resolved FRET assay that indirectly measures PIP3 product formed by the activity of a PI3-K. The kinase reaction is performed in a microtitre plate (e.g., a 384 well microtitre plate). The total reaction volume is approximately 20 ul per well. In the first step, each well receives 2 ul of test compound in 20% dimethylsulphoxide resulting in a 2% DMSO final concentration. Next, approximately 14.5 ul of a kinase/PIP2 mixture (diluted in 1× reaction buffer) is added per well for a final concentration of 0.25-0.3 ug/ml kinase and 10 μM PIP2. The plate is sealed and incubated for 15 minutes at room temperature. To start the reaction, 3.5 ul of ATP (diluted in 1× reaction buffer) is added per well for a final concentration of 10 μM ATP. The plate is sealed and incubated for 1 hour at room temperature. The reaction is stopped by adding 5 ul of Stop Solution per well and then 5 ul of Detection Mix is added per well. The plate is sealed, incubated for 1 hour at room temperature, and then read on an appropriate plate reader. Data is analyzed and IC50s are generated using GraphPad Prism 5. For PI3K α, β, δ, and γ, the nM concentration of inhibitor to reach IC50 is provided.
Procedure for PI3K γ: as §1
Procedure for mTORC: The compounds described herein can be tested against recombinant mTOR (Invitrogen) in an assay containing 50 mM HEPES, pH 7.5, 1 mM EGTA, 10 mM MgCl2, 2.5 mM, 0.01% Tween, 10 μM ATP (2.5 μCi of μ-32P-ATP), and 3 μg/mL BSA. Rat recombinant PHAS-1/4EBP1 (Calbiochem; 2 mg/mL) is used as a substrate. Reactions are terminated by spotting onto nitrocellulose, which is washed with 1M NaCl/1% phosphoric acid (approximately 6 times, 5-10 minutes each). Sheets are dried and the transferred radioactivity quantitated by phosphorimaging.
For instance, one can use Invitrogen's LanthaScreen™ Kinase assay to test the inhibitors of mTOR disclosed herein. This assay is a time resolved FRET platform that measures the phosphorylation of GFP labeled 4EBP1 by mTOR kinase. The kinase reaction is performed in a white 384 well microtitre plate. The total reaction volume is 20 ul per well and the reaction buffer composition is 50 mM HEPES pH7.5, 0.01% Polysorbate 20, 1 mM EGTA, 10 mM MnCl2, and 2 mM DTT. In the first step, each well receives 2 ul of test compound in 20% dimethylsulphoxide resulting in a 2% DMSO final concentration. Next, 8 ul of mTOR diluted in reaction buffer is added per well for a 60 ng/ml final concentration. To start the reaction, 10 ul of an ATP/GFP-4EBP1 mixture (diluted in reaction buffer) is added per well for a final concentration of 10 μM ATP and 0.5 μM GFP-4EBP1. The plate is sealed and incubated for 1 hour at room temperature. […] The plate is sealed, incubated for 1 hour at room temperature, and then read on a plate reader set up for LanthaScreen™ TR-FRET. Data is analyzed and IC50s are generated using GraphPad Prism 5.

For `CCCOc1cc(N)ccc1C(=O)OCCN(CC)CC` [propoxycaine], the plasma stability entry in series [1] is given as “low plasma stability”.

`O=C(O)CCCc1ccc(N(CCCl)CCCl)cc1` [chlorambucil, 4-[bis(2-chloroethyl)amino]benzenebutanoic acid]: in series [2], the chemical stability entry is recorded as “largely hydrolyzed over the course of 24 hours”.

`CC(=O)N1CCC(N(C)c2ncnc3ccc(-c4ccc5oc(N)nc5c4)cc23)CC1`: the IC50 is less than 0.1 µM against PI3K α; less than 1 µM against PI3K β; less than 1 µM against PI3K δ; less than 1 µM on PI3K γ; more than 10 µM against mTORC.

Consider `Cc1nc2ccc(-c3ccc4oc(N)nc4c3)nn2c1-c1ccncc1`, for which the IC50 at PI3K α is less than 0.1 µM; against PI3K β, less than 1 µM; against PI3K δ, more than 10 µM; on PI3K γ it was less than 0.1 µM; against mTORC it was less than 1 µM.

Turning to `C[C@H]1CN(C2CN(c3cnc4ccc(-c5ccc6oc(N)nc6c5)nc4c3)C2)CCN1`, the IC50 at PI3K α was less than 0.1 µM; at PI3K β, less than 10 µM; against PI3K δ, less than 1 µM; at PI3K γ, less than 10 µM; on mTORC, more than 10 µM.

Turning to `Nc1nc2cc(-c3ccc4ncc(N5CC(C(=O)N6CCOCC6)C5)nc4c3)ccc2o1` [drawing 359], the IC50 against PI3K α was less than 0.1 µM; against PI3K β it was less than 1 µM; against PI3K δ, less than 1 µM; on PI3K γ it was less than 1 µM; at mTORC, less than 10 µM.

In the case of `CO[C@H]1C[C@@H]2CC[C@@H](C)[C@@](O)(O2)C(=O)C(=O)N2CCCC[C@H]2C(=O)O[C@H]([C@H](C)C[C@@H]2CC[C@@H](O)[C@H](OC)C2)CC(=O)[C@H](C)/C=C(\C)[C@@H](O)[C@@H](OC)C(=O)[C@H](C)C[C@H](C)/C=C/C=C/C=C/1C` [rapamycin], in series [3], the Akt phosphorylation result is recorded as “enhances Akt phosphorylation” and the S6 phosphorylation result was “inhibits S6 phosphorylation”.

As for `CC(C)N1CCN(c2cnc3ccc(-c4ccc5oc(N)nc5c4)nc3c2)CC1`, the IC50 on PI3K α was less than 0.1 µM; at PI3K β, less than 1 µM; at PI3K δ it was less than 1 µM; at PI3K γ, less than 1 µM; at mTORC it was more than 10 µM.

`CC1(C)CN(C2CN(c3cnc4ccc(-c5ccc6oc(N)nc6c5)nc4c3)C2)CCN1`: the IC50 on PI3K α was less than 0.1 µM; against PI3K β, less than 10 µM; on PI3K δ it was less than 1 µM; on PI3K γ, less than 1 µM; at mTORC it was more than 10 µM.

On to `CN1CC(C(=O)N2CCN(c3cnc4ccc(-c5ccc6oc(N)nc6c5)cc4n3)CC2)C1`, for which the IC50 at PI3K α is less than 0.1 µM; at PI3K β, less than 1 µM; against PI3K δ, less than 1 µM; on PI3K γ, less than 1 µM; against mTORC, more than 10 µM.

Take `Nc1nc2cc(-c3ccc4ncc(C(=O)N5CCOCC5)n4c3)ccc2o1`: the IC50 against PI3K α is less than 0.1 µM; against PI3K β it was less than 10 µM; at PI3K δ, less than 10 µM; at PI3K γ, less than 10 µM; at mTORC it was less than 10 µM.

Turning to `CN1CCN(C2CN(c3cnc4ccc(-c5ccc6oc(N)nc6c5)nc4c3)C2)CC1=O`, the IC50 against PI3K α was less than 0.1 µM; against PI3K β, less than 10 µM; at PI3K δ, less than 1 µM; at PI3K γ, less than 0.1 µM; on mTORC, less than 10 µM.

Turning to `Nc1nc2cccc(-c3ccc4nccc(-c5ccncc5)c4c3)c2o1` [Compound 15], the IC50 at PI3K α is less than 0.1 µM; at PI3K β, less than 0.1 µM; against PI3K δ, less than 1 µM; at PI3K γ, less than 1 µM; against mTORC, less than 0.1 µM.

As for `CC(=O)N1CCC(Nc2ncnc3ccc(-c4ccc5oc(N)nc5c4)cc23)CC1`, the IC50 against PI3K α is less than 0.1 µM; against PI3K β it was less than 10 µM; on PI3K δ, less than 1 µM; at PI3K γ, less than 0.1 µM; at mTORC, less than 1 µM.

As for `CCOC(=O)N1CCN(c2cnc3ccc(-c4ccc5oc(N)nc5c4)cc3n2)CC1`, the IC50 was less than 0.1 µM on PI3K α; less than 10 µM on PI3K β; less than 10 µM against PI3K δ; less than 10 µM on PI3K γ; less than 10 µM on mTORC.

With `CC(C)[N+](C)(CCOC(=O)C1c2ccccc2Oc2ccccc21)C(C)C` [propantheline], the plasma stability entry in series [1] was “intermediate plasma stability”.

For the compound `CC(C)N1CCC(n2cnc3ccc(-c4ccc5oc(N)nc5c4)cc3c2=O)CC1`, the IC50 against PI3K α was less than 0.1 µM; against PI3K β it was less than 10 µM; at PI3K δ it was more than 10 µM; on PI3K γ it was less than 10 µM; against mTORC it was less than 10 µM.

Turning to `Cc1nccn1C1CN(c2cnc3ccc(-c4ccc5oc(N)nc5c4)nc3n2)C1`, the IC50 is less than 0.1 µM against PI3K α; less than 10 µM at PI3K β; less than 10 µM at PI3K δ; less than 10 µM at PI3K γ; more than 10 µM on mTORC.

Take `Nc1nc2cc(-c3ccc4ncc(N5CC(N6CCN(CC7CC7)CC6)C5)nc4n3)ccc2o1`: the IC50 against PI3K α is less than 0.1 µM; at PI3K β, less than 10 µM; against PI3K δ it was less than 10 µM; at PI3K γ it was less than 10 µM; against mTORC, more than 10 µM.

`Nc1nc2cc(-c3ccc4ncc(N5CCNC(=O)C5)nc4c3)ccc2o1`: the IC50 at PI3K α is less than 0.1 µM; on PI3K β, less than 1 µM; on PI3K δ it was more than 10 µM; on PI3K γ, less than 1 µM; against mTORC it was more than 10 µM.

`Cn1c(=O)n(-c2ccc(C(C)(C)C#N)cc2)c2c3cc(-c4ccc5oc(N)nc5c4)ccc3ncc21` [Compound 7]: the IC50 against PI3K α, against PI3K β, against PI3K δ, at PI3K γ and at mTORC was less than 0.1 µM throughout.

As for `C[C@H]1CN(C2CN(c3cnc4ccc(-c5ccc6oc(N)nc6c5)nc4n3)C2)CCN1`, the IC50 on PI3K α was less than 0.1 µM; at PI3K β it was more than 10 µM; at PI3K δ it was less than 10 µM; on PI3K γ it was less than 10 µM; on mTORC, less than 10 µM.

As for `CC(=O)Nc1nc2ccc(-c3ccc4nccc(-c5ccncc5)c4c3)cc2s1` [Compound 2], the IC50 was less than 1 µM on PI3K α; more than 10 µM against PI3K β; more than 10 µM against PI3K δ; less than 1 µM at PI3K γ; more than 10 µM at mTORC.

`Nc1nc2cc(-c3ccc4ncc(N5CC(N6CCOCC6)C5)cc4n3)ccc2o1`: the IC50 at PI3K α was less than 0.1 µM; on PI3K β, less than 10 µM; on PI3K δ, less than 10 µM; at PI3K γ, less than 1 µM; against mTORC, more than 10 µM.

Regarding `C[C@@H]1CN(C2CN(c3cnc4ccc(-c5ccc6oc(N)nc6c5)nc4c3)C2)CCN1`, the IC50 against PI3K α was less than 0.1 µM; on PI3K β, less than 10 µM; against PI3K δ it was less than 1 µM; on PI3K γ, less than 1 µM; against mTORC it was more than 10 µM.

Regarding `Nc1nc2cc(-c3ccn4ncc(-c5ccncc5)c4n3)ccc2o1`, the IC50 on PI3K α, at PI3K β, against PI3K δ, at PI3K γ and against mTORC was less than 0.1 µM throughout.
